Data published in PubChem BioAssay AID1963874 (Molecular Pharmacology Branch, DTP, NCI, 2024).

Tested on: 253994-281-T-J1-PDC KRAS-mutant spheroids with HUVEC/MSC, viability
Assay: Anticancer human tumor 253994-281-T-J1-PDC patient-derived colorectal carcinoma cell line growth inhibition [KRAS2]
Details: for IC50: curve of first compound; for viability, T/C: stronger effect = lower value
In short: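 KRAS-mutant tumor cells were grown as spheroids with HUVEC endothelial cells and human MSCs as stroma. Targeted agents were tested alone and with KRAS pathway inhibitors. Doses started at or near clinical Cmax, or 10 microM, descending half-log.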

[1] = second compound 0.0316 µM, first compound 0.000316 µM
[2] = second compound 0.0316 µM, first compound 0.001 µM
[3] = second compound 0.0316 µM, first compound 0.00316 µM
[4] = second compound 0.0316 µM, first compound 0.01 µM
[5] = second compound 0.0316 µM, first compound 0.0316 µM
[6] = second compound 0.1 µM, first compound 0.000316 µM
[7] = second compound 0.1 µM, first compound 0.001 µM
[8] = second compound 0.1 µM, first compound 0.00316 µM
[9] = second compound 0.1 µM, first compound 0.01 µM
[10] = second compound 0.1 µM, first compound 0.0316 µM
[11] = second compound 0.316 µM, first compound 0.000316 µM
[12] = second compound 0.316 µM, first compound 0.001 µM
[13] = second compound 0.316 µM, first compound 0.00316 µM
[14] = second compound 0.316 µM, first compound 0.01 µM
[15] = second compound 0.316 µM, first compound 0.0316 µM
[16] = second compound 1 µM, first compound 0.000316 µM
[17] = second compound 1 µM, first compound 0.001 µM
[18] = second compound 1 µM, first compound 0.00316 µM
[19] = second compound 1 µM, first compound 0.01 µM
[20] = second compound 1 µM, first compound 0.0316 µM
[21] = second compound 3.16 µM, first compound 0.000316 µM
[22] = second compound 3.16 µM, first compound 0.001 µM
[23] = second compound 3.16 µM, first compound 0.00316 µM
[24] = second compound 3.16 µM, first compound 0.01 µM
[25] = second compound 3.16 µM, first compound 0.0316 µM
[26] = second compound 0.0316 µM, first compound 0.1 µM
[27] = second compound 0.1 µM, first compound 0.1 µM
[28] = second compound 0.316 µM, first compound 0.1 µM
[29] = second compound 1 µM, first compound 0.1 µM
[30] = second compound 3.16 µM, first compound 0.1 µM
[31] = second compound 0.0316 µM, first compound 0.316 µM
[32] = second compound 0.0316 µM, first compound 1 µM
[33] = second compound 0.0316 µM, first compound 3.16 µM
[34] = second compound 0.0316 µM, first compound 10 µM
[35] = second compound 0.1 µM, first compound 0.316 µM
[36] = second compound 0.1 µM, first compound 1 µM
[37] = second compound 0.1 µM, first compound 3.16 µM
[38] = second compound 0.1 µM, first compound 10 µM
[39] = second compound 0.316 µM, first compound 0.316 µM
[40] = second compound 0.316 µM, first compound 1 µM
[41] = second compound 0.316 µM, first compound 3.16 µM
[42] = second compound 0.316 µM, first compound 10 µM
[43] = second compound 1 µM, first compound 0.316 µM
[44] = second compound 1 µM, first compound 1 µM
[45] = second compound 1 µM, first compound 3.16 µM
[46] = second compound 1 µM, first compound 10 µM
[47] = second compound 3.16 µM, first compound 0.316 µM
[48] = second compound 3.16 µM, first compound 1 µM
[49] = second compound 3.16 µM, first compound 3.16 µM
[50] = second compound 3.16 µM, first compound 10 µM
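Note: spheroids exposed to agents for seven days before readout.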
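Throughout, for viability, T/C: percent of DMSO vehicle control viability.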

CC(=O)Nc1cccc(-n2c(=O)n(C3CC3)c(=O)c3c(Nc4ccc(I)cc4F)n(C)c(=O)c(C)c32)c1 + C=CC(=O)N1CCN(c2nc(OCC3CCCN3C)nc3c2CCN(c2cccc4cccc(C)c24)C3)CC1CC#N
IC50 (second compound 0.0316 µM): 1.57 nM
IC50 (second compound 0.1 µM): 0.98 nM
IC50 (second compound 0.316 µM): 0.66 nM
IC50 (second compound 1 µM): 0.616 nM
IC50 (second compound 3.16 µM): < 0.1 nM
viability, T/C (second compound 0.0316 µM, first compound 0.0001 µM): 86.7%
viability, T/C [1]: 84.6%
viability, T/C [2]: 66%
viability, T/C [3]: 24.7%
viability, T/C [4]: 12%
viability, T/C [5]: 6.91%
viability, T/C (second compound 0.1 µM, first compound 0.0001 µM): 72.5%
viability, T/C [6]: 76.9%
viability, T/C [7]: 47%
viability, T/C [8]: 22.2%
viability, T/C [9]: 14.6%
viability, T/C [10]: 6.68%
viability, T/C (second compound 0.316 µM, first compound 0.0001 µM): 74.9%
viability, T/C [11]: 64.7%
viability, T/C [12]: 41.4%
viability, T/C [13]: 20.9%
viability, T/C [14]: 9.84%
viability, T/C [15]: 4.12%
viability, T/C (second compound 1 µM, first compound 0.0001 µM): 78.9%
viability, T/C [16]: 68%
viability, T/C [17]: 34.6%
viability, T/C [18]: 23.4%
viability, T/C [19]: 8.81%
viability, T/C [20]: 4.05%
viability, T/C (second compound 3.16 µM, first compound 0.0001 µM): 23.4%
viability, T/C [21]: 11.8%
viability, T/C [22]: 31.7%
viability, T/C [23]: 3.64%
viability, T/C [24]: 0.37%
viability, T/C [25]: 1.21%

CN(C)C/C=C/C(=O)Nc1cc2c(Nc3ccc(F)c(Cl)c3)ncnc2cc1O[C@H]1CCOC1 + C=CC(=O)N1CCN(c2nc(OCC3CCCN3C)nc3c2CCN(c2cccc4cccc(C)c24)C3)CC1CC#N
IC50 (second compound 0.0316 µM): > 100 nM
IC50 (second compound 0.1 µM): > 100 nM
IC50 (second compound 0.316 µM): > 100 nM
IC50 (second compound 1 µM): > 100 nM
IC50 (second compound 3.16 µM): 0.72 nM
viability, T/C [1]: 95.7%
viability, T/C [2]: 89.4%
viability, T/C [3]: 92.3%
viability, T/C [4]: 95.7%
viability, T/C [5]: 88.5%
viability, T/C [26]: 54%
viability, T/C [6]: 83.2%
viability, T/C [7]: 91.5%
viability, T/C [8]: 76.6%
viability, T/C [9]: 86.1%
viability, T/C [10]: 69.2%
viability, T/C [27]: 53.8%
viability, T/C [11]: 95.7%
viability, T/C [12]: 81.3%
viability, T/C [13]: 87.5%
viability, T/C [14]: 77.4%
viability, T/C [15]: 78.3%
viability, T/C [28]: 66.5%
viability, T/C [16]: 97.9%
viability, T/C [17]: 108%
viability, T/C [18]: 83.1%
viability, T/C [19]: 69.4%
viability, T/C [20]: 73.1%
viability, T/C [29]: 62.2%
viability, T/C [21]: 53.8%
viability, T/C [22]: 48.5%
viability, T/C [23]: 4.58%
viability, T/C [24]: 22%
viability, T/C [25]: 19.6%
viability, T/C [30]: 5.55%

COC(=O)c1ccc2c(C(=Nc3ccc(N(C)C(=O)CN4CCN(C)CC4)cc3)c3ccccc3)c(O)[nH]c2c1 + C=CC(=O)N1CCN(c2nc(OCC3CCCN3C)nc3c2CCN(c2cccc4cccc(C)c24)C3)CC1CC#N
IC50 (second compound 0.0316 µM): 4960 nM
IC50 (second compound 0.1 µM): 4290 nM
IC50 (second compound 0.316 µM): 3340 nM
IC50 (second compound 1 µM): 2310 nM
IC50 (second compound 3.16 µM): < 31.6 nM
viability, T/C [5]: 101%
viability, T/C [26]: 112%
viability, T/C [31]: 98.7%
viability, T/C [32]: 96.4%
viability, T/C [33]: 76.3%
viability, T/C [34]: 9.63%
viability, T/C [10]: 94.2%
viability, T/C [27]: 88.3%
viability, T/C [35]: 86.7%
viability, T/C [36]: 75.5%
viability, T/C [37]: 66.9%
viability, T/C [38]: 13.4%
viability, T/C [15]: 109%
viability, T/C [28]: 85.9%
viability, T/C [39]: 80.4%
viability, T/C [40]: 72.5%
viability, T/C [41]: 59.4%
viability, T/C [42]: 15.7%
viability, T/C [20]: 90.7%
viability, T/C [29]: 85.8%
viability, T/C [43]: 66.9%
viability, T/C [44]: 72.7%
viability, T/C [45]: 44%
viability, T/C [46]: 0.21%
viability, T/C [25]: 5.16%
viability, T/C [30]: 10.4%
viability, T/C [47]: 18.4%
viability, T/C [48]: 9.87%
viability, T/C [49]: 0.17%
viability, T/C [50]: 0.22%

O=C(c1cc(Cc2n[nH]c(=O)c3ccccc23)ccc1F)N1CCN(C(=O)C2CC2)CC1 + C=CC(=O)N1CCN(c2nc(OCC3CCCN3C)nc3c2CCN(c2cccc4cccc(C)c24)C3)CC1CC#N
IC50 (second compound 0.0316 µM): > 10000 nM
IC50 (second compound 0.1 µM): > 10000 nM
IC50 (second compound 0.316 µM): > 10000 nM
IC50 (second compound 1 µM): > 10000 nM
IC50 (second compound 3.16 µM): < 31.6 nM
viability, T/C [5]: 108%
viability, T/C [26]: 100%
viability, T/C [31]: 95.8%
viability, T/C [32]: 90.5%
viability, T/C [33]: 90.5%
viability, T/C [34]: 82.8%
viability, T/C [10]: 83.1%
viability, T/C [27]: 101%
viability, T/C [35]: 94.1%
viability, T/C [36]: 87.1%
viability, T/C [37]: 82.1%
viability, T/C [38]: 85.2%
viability, T/C [15]: 80.3%
viability, T/C [28]: 81%
viability, T/C [39]: 83.8%
viability, T/C [40]: 73%
viability, T/C [41]: 79.6%
viability, T/C [42]: 89.6%
viability, T/C [20]: 87.4%
viability, T/C [29]: 113%
viability, T/C [43]: 88.2%
viability, T/C [44]: 90.7%
viability, T/C [45]: 81.4%
viability, T/C [46]: 80.8%
viability, T/C [25]: 32.7%
viability, T/C [30]: 13%
viability, T/C [47]: 15.7%
viability, T/C [48]: 24.1%
viability, T/C [49]: 21%
viability, T/C [50]: 21.1%
